Measured values published in US7276501B2, “6-(4-substituted-anilino)pyrimidine derivatives, method for preparation thereof and antiviral pharmaceutical composition comprising the same” (B & C Biopharm, priority 2002, dated 2007).

Target: T1, HCV RNA polymerase (RNA dependent RNA polymerase, NS5B) (Hepatitis C virus genotype 1b, UniProt P26663)
T1 construct: the NS5B region (1773 bps) was amplified by PCR and cloned into pVLHIS, a baculovirus transfer vector; (His)6; made in house; host or cells: Sf9 insect cells (recombinant baculovirus, pVLHIS-NS5B)
Assay: Inhibitory effect on activity of recombinant HCV RNA polymerase (NS5B) in vitro
Assay type: biochemical, HCV-1b type HCV
Method: Test of Inhibitory Effect on Activity of HCV RNA Polymerase (RNA Dependent RNA Polymerase, NS5B) in vitro
The following in vitro experiments were conducted to examine the inhibitory effect of the compounds according to the present invention on the activity of HCV RNA dependent RNA Polymerase.
HCV cDNA was obtained from the blood of HCV-1b type HCV patient and the NS5B region (1773 bps) was amplified by PCR and cloned into pVLHIS, a baculovirus transfer vector, to prepare a recombinant transfer vector. The prepared transfer vector and the wild-type AcNPV vector were cotransfected into Sf9 insect cell line to yield a recombinant baculovirus containing the histidine-tagged recombinant vector pVLHIS-NS5B. Sufficiently cultured insect cells were infected with the resulting recombinant baculovirus and cultured in Grace's medium containing 10% FBS for 3 to 4 days. The culture broth was centriftiged to obtain only the infected cells. The cells were washed three times with PBS and resuspended in binding buffer [50 mM Na-phosphate (pH 8.0), 30 mM NaCl, 10 mM imidazole, 1 mM DTT, 10% glycerol, 1% NP40], sonicated and the clearized lysate was obtained. Recombinant NS5B was purified by affinity column chromatography using a Ni-NTA His bind resin (Novagen) to produce pure NS5B protein. The (His)6-tagged NS5B was bound to Ni-NTA resin and washed the binding buffer containing 50 mM imidazole. The bound NS5B was eluted with the binding buffer containing imidazole in a step-gradient manner (100-300 mM). The NS5B protein fractions were dialyzed against buffer [50 mM Tris-HCl, 50 mM NaCl, 1 mM DTT, […], 10% glycerol], followed by at −70° C. in a small aliquot.
The 3′UTR cDNA (220 bp) of HCV was obtained from 1b HCV RNA of the blood of a hepatitis C patient by PCR and cloned into pcDNA3 vector. Linearized DNA fragment containing the 3′-UTR was prepared using the restriction enzyme Eco RI and used as a template for in vitro transcription using T7 RNA ploymerase to prepare RNA fragment containing 3′-UTR.
In vitro inhibitory activity of the compounds of the present invention on recombinant HCV RNA polymerase was measured as follows.
A streptavidin-coated well plate was prepared suitable for the sample to be examined. 25 μl of 2× assay buffer [50 mM Tris-Cl (pH 7.5), 100 mM NaCl, 10 mM MgCl2, 20 mM KCl, 1 mM EDTA, 1 mM DTT] and 10 μl of purified HCV RNA polymerase 200 ng and 3′-UTR template RNA were added to each well. Then, 5 μl of the sample to be examined was added to have final concentrations of 10, 1, 0.1 and 0.01 μg/mL. Finally, 10 μl of a reactant solution containing DIG-(digoxigenin)-UTP, biotin-UTP, ATP, CTP, GTP, and UTP as a nucleotide for the ploymerase reaction with the RNA template of HCV 3′-UTR RNA was added to each well. The reaction mixture was incubated at 22° C. for 60 minutes. By the action of HCV polymerase, newly generated RNAs including UTP conjugated with biotin and DIG were copied and these new RNAs could bind to streptavidin coated on the well by biotin-conjugated UTP. After completion of the reaction, the plate was washed three times with 200 μl of a washing buffer (pH 7.0, Roche Co.) to remove unreacted substances and impurities. Then, 100 μl of the secondary antibody anti-DIG-POD (peroxidase, Roche Co.) was added to each well and incubated at 37° C. for 1 hour. Again, the well plate was washed with the washing buffer. Finally, 100 μl of ABTS^R (Roche Co.) as a POD substrate was added to each well and reacted for 15 to 30 minutes. The optical density (OD) was measured using an ELISA reader (Bio-Tek instrument Co.) at 405 nm. The inhibitory effect on the activity of HCV polymerase was calculated by subtracting the OD of the positive control without the sample.

T1 sequence (P26663 2420-3010): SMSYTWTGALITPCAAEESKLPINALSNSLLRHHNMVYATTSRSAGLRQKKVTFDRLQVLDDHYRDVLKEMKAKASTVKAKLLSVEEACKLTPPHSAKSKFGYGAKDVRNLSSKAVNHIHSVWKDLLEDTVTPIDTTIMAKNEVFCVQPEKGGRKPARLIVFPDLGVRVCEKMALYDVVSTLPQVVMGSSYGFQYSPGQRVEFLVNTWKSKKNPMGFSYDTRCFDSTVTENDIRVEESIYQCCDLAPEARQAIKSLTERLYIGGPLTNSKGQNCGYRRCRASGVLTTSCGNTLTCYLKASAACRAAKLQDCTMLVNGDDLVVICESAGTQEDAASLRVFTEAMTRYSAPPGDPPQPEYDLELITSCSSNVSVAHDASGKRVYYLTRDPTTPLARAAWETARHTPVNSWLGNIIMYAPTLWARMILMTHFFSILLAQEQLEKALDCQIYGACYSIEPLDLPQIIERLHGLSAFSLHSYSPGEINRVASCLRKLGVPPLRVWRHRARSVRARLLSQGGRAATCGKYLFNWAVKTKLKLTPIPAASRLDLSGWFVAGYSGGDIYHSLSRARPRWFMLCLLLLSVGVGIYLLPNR

CSc1nc(Nc2ccc(N3CCOCC3)cc2)cc(N2CCN(C(=O)OC(C)C)CC2)n1 [Example 1, 2-methylthio-6-[4-(4-morpholino)anilino]-4-[4-(isopropoxycarbonyl)piperazin-1-yl]pyrimidine]
Inhibition of activity of HCV RNA polymerase (%) (0.01 μg/mL): 29%
Inhibition of activity of HCV RNA polymerase (%) (0.1 μg/mL): 55%
Inhibition of activity of HCV RNA polymerase (%) (1 μg/mL): 81%
Inhibition of activity of HCV RNA polymerase (%) (10 μg/mL): 99%

CSc1nc(Nc2ccc(N3CCOCC3)cc2)cc(N2CCN(C(=O)c3cccnc3)CC2)n1 [Example 2, 2-methylthio-6-[4-(4-morpholino)anilino]-4-[4-[(3-pyridyl)carbonyl]piperazin-1-yl]pyrimidine]
Inhibition of activity of HCV RNA polymerase (%) (0.01 μg/mL): 15%
Inhibition of activity of HCV RNA polymerase (%) (0.1 μg/mL): 30%
Inhibition of activity of HCV RNA polymerase (%) (1 μg/mL): 62%
Inhibition of activity of HCV RNA polymerase (%) (10 μg/mL): 98%

CSc1nc(Nc2ccc(N3CCOCC3)cc2)cc(N2CCN(C(=O)c3ccncc3)CC2)n1 [Example 3, 2-methylthio-6-[4-(4-morpholino)anilino]-4-[4-[(4-pyridyl)carbonyl]piperazin-1-yl]pyrimidine]
Inhibition of activity of HCV RNA polymerase (%) (0.01 μg/mL): 23%
Inhibition of activity of HCV RNA polymerase (%) (0.1 μg/mL): 53%
Inhibition of activity of HCV RNA polymerase (%) (1 μg/mL): 73%
Inhibition of activity of HCV RNA polymerase (%) (10 μg/mL): 93%

CSc1nc(Nc2ccc(N3CCOCC3)cc2)cc(N2CCN(CC(=O)O)CC2)n1 [Example 4, 2-methylthio-6-[4-(4-morpholino)anilino]-4-[4-(carboxymethyl)piperazin-1-yl]pyrimidine]
Inhibition of activity of HCV RNA polymerase (%) (0.01 μg/mL): 27%
Inhibition of activity of HCV RNA polymerase (%) (0.1 μg/mL): 52%
Inhibition of activity of HCV RNA polymerase (%) (1 μg/mL): 65%
Inhibition of activity of HCV RNA polymerase (%) (10 μg/mL): 94%
